Test results reported in ChEMBL document CHEMBL3885861, “Open TG-GATES”.

Species: Rattus norvegicus
Test: Open TG-GATES - Regimen: Daily Repeat
Format: toxicity, organism-based, Sprague-Dawley
Parameters: regimen Daily Repeat, gender Male, age 6 weeks
Settings: in vivo, po, route gavage; for APTT / Bas / Eos / Fbg / Hb / Ht / Lym / MCH / MCHC / MCV / Mono / Neu / PT / Plat / RBC / Ret / WBC: tissue Blood; for KIDNEY_L / KIDNEY_R / KIDNEY_TOTAL: tissue Kidney; for LIVER: tissue Liver; for A/G / ALP / ALT / AST / BUN / CRE / Ca / Cl / DBIL / GLC / IP / K / LDH / Na / PL / RALB / TBIL / TC / TG / TP / gamma-GTP: tissue Plasma
[1] = 100 mg/kg, 72 h, dose level Middle, time 3 day
[2] = 100 mg/kg, […], dose level Middle, time 7 day
[3] = 100 mg/kg, […], dose level Middle, time 14 day
[4] = 100 mg/kg, […], dose level Middle, time 28 day
[5] = 300 mg/kg, 72 h, dose level High, time 3 day
[6] = 300 mg/kg, […], dose level High, time 7 day
[7] = 300 mg/kg, […], dose level High, time 14 day
[8] = 300 mg/kg, […], dose level High, time 28 day

CCOC(=O)C(C)(C)Oc1ccc(Cl)cc1 [CLOFIBRATE]
TERMINAL_BW [1]: 242.5 g
APTT [1]: 18.9 s
Bas [1]: 0%
Eos [1]: 1%
Fbg [1]: 210.8 mg/dL
Hb [1]: 13.4 g/dL
Ht [1]: 38.4%
Lym [1]: 80.2%
MCH [1]: 21.6 pg
MCHC [1]: 35%
MCV [1]: 61.8 fL
Mono [1]: 2.6%
Neu [1]: 15.6%
PT [1]: 12.4 s
Plat [1]: 131.7 x10_4/uL
RBC [1]: 621.6 x10_4/ul
Ret [1]: 4.9%
WBC [1]: 117.6 x10_2/uL
KIDNEY_L [1]: 1.1 g
KIDNEY_R [1]: 1.1 g
KIDNEY_TOTAL [1]: 2.2 g
LIVER [1]: 12.5 g
A/G [1]: 1.7
ALP [1]: 1054.4 IU/L
ALT [1]: 38.2 IU/L
AST [1]: 70.2 IU/L
BUN [1]: 16 mg/dL
CRE [1]: 0.4 mg/dL
Ca [1]: 10.8 mg/dL
Cl [1]: 102.6 meq/L
DBIL [1]: 0.076 mg/dL
GLC [1]: 198.4 mg/dL
IP [1]: 6.3 mg/dL
K [1]: 4 meq/L
LDH [1]: 215 IU/L
Na [1]: 141 meq/L
PL [1]: 120 mg/dL
RALB [1]: 3.4 g/dL
TBIL [1]: 0.1 mg/dL
TC [1]: 55.6 mg/dL
TG [1]: 82.4 mg/dL
TP [1]: 5.4 g/dL
gamma-GTP [1]: 0.6 IU/L
TERMINAL_BW [2]: 270.9 g
TERMINAL_BW [3]: 321.6 g
TERMINAL_BW [4]: 398.1 g
APTT [2]: 22.7 s
Bas [2]: 0%
Eos [2]: 1%
Fbg [2]: 200.6 mg/dL
Hb [2]: 14 g/dL
Ht [2]: 40%
Lym [2]: 79.2%
MCH [2]: 21.2 pg
MCHC [2]: 35.1%
MCV [2]: 60.5 fL
Mono [2]: 3%
Neu [2]: 16.6%
PT [2]: 12.4 s
Plat [2]: 132.4 x10_4/uL
RBC [2]: 660.6 x10_4/ul
Ret [2]: 4.9%
WBC [2]: 99.6 x10_2/uL
APTT [3]: 20.3 s
Bas [3]: 0%
Eos [3]: 1%
Fbg [3]: 204.2 mg/dL
Hb [3]: 13.6 g/dL
Ht [3]: 39.5%
Lym [3]: 81.8%
MCH [3]: 20 pg
MCHC [3]: 34.3%
MCV [3]: 58.2 fL
Mono [3]: 2.6%
Neu [3]: 14.2%
PT [3]: 12.7 s
Plat [3]: 130.4 x10_4/uL
RBC [3]: 679 x10_4/ul
Ret [3]: 4.2%
WBC [3]: 153.1 x10_2/uL
APTT [4]: 21.7 s
Bas [4]: 0%
Eos [4]: 1.2%
Fbg [4]: 211.2 mg/dL
Hb [4]: 14.7 g/dL
Ht [4]: 41.8%
Lym [4]: 83.8%
MCH [4]: 19.1 pg
MCHC [4]: 35.1%
MCV [4]: 54.3 fL
Mono [4]: 2%
Neu [4]: 12.8%
PT [4]: 12.1 s
Plat [4]: 110.4 x10_4/uL
RBC [4]: 769.4 x10_4/ul
Ret [4]: 2.1%
WBC [4]: 141.2 x10_2/uL
KIDNEY_L [2]: 1.1 g
KIDNEY_R [2]: 1.2 g
KIDNEY_TOTAL [2]: 2.3 g
KIDNEY_L [3]: 1.3 g
KIDNEY_R [3]: 1.3 g
KIDNEY_TOTAL [3]: 2.6 g
KIDNEY_L [4]: 1.5 g
KIDNEY_R [4]: 1.5 g
KIDNEY_TOTAL [4]: 3 g
LIVER [2]: 14.5 g
LIVER [3]: 17 g
LIVER [4]: 20.1 g
A/G [2]: 1.9
ALP [2]: 856.8 IU/L
ALT [2]: 32.8 IU/L
AST [2]: 61 IU/L
BUN [2]: 16.8 mg/dL
CRE [2]: 0.4 mg/dL
Ca [2]: 10.4 mg/dL
Cl [2]: 102.8 meq/L
DBIL [2]: 0.07 mg/dL
GLC [2]: 211.2 mg/dL
IP [2]: 7.3 mg/dL
K [2]: 3.5 meq/L
LDH [2]: 207.2 IU/L
Na [2]: 141 meq/L
PL [2]: 108.8 mg/dL
RALB [2]: 3.7 g/dL
TBIL [2]: 0.1 mg/dL
TC [2]: 49.8 mg/dL
TG [2]: 53.4 mg/dL
TP [2]: 5.6 g/dL
gamma-GTP [2]: 1 IU/L
A/G [3]: 1.7
ALP [3]: 933 IU/L
ALT [3]: 38.4 IU/L
AST [3]: 63.4 IU/L
BUN [3]: 16.4 mg/dL
CRE [3]: 0.4 mg/dL
Ca [3]: 10.2 mg/dL
Cl [3]: 101.8 meq/L
DBIL [3]: 0.06 mg/dL
GLC [3]: 223.8 mg/dL
IP [3]: 6.1 mg/dL
K [3]: 3.8 meq/L
LDH [3]: 183.8 IU/L
Na [3]: 140.4 meq/L
PL [3]: 120.2 mg/dL
RALB [3]: 3.5 g/dL
TBIL [3]: 0.1 mg/dL
TC [3]: 55 mg/dL
TG [3]: 63.4 mg/dL
TP [3]: 5.6 g/dL
gamma-GTP [3]: 1 IU/L
A/G [4]: 1.7
ALP [4]: 726.6 IU/L
ALT [4]: 38.2 IU/L
AST [4]: 71 IU/L
BUN [4]: 15.8 mg/dL
CRE [4]: 0.4 mg/dL
Ca [4]: 10.5 mg/dL
Cl [4]: 102.4 meq/L
DBIL [4]: 0.08 mg/dL
GLC [4]: 208.6 mg/dL
IP [4]: 6.1 mg/dL
K [4]: 3.6 meq/L
LDH [4]: 236.8 IU/L
Na [4]: 141 meq/L
PL [4]: 132 mg/dL
RALB [4]: 3.8 g/dL
TBIL [4]: 0.1 mg/dL
TC [4]: 54.8 mg/dL
TG [4]: 106.2 mg/dL
TP [4]: 6 g/dL
gamma-GTP [4]: 1 IU/L
TERMINAL_BW [5]: 242 g
APTT [5]: 20.5 s
Bas [5]: 0%
Eos [5]: 1%
Fbg [5]: 199.2 mg/dL
Hb [5]: 13.2 g/dL
Ht [5]: 37.7%
Lym [5]: 73.8%
MCH [5]: 21 pg
MCHC [5]: 34.9%
MCV [5]: 60.3 fL
Mono [5]: 3.2%
Neu [5]: 21.8%
PT [5]: 12.3 s
Plat [5]: 125.3 x10_4/uL
RBC [5]: 625.4 x10_4/ul
Ret [5]: 3.9%
WBC [5]: 91.3 x10_2/uL
KIDNEY_L [5]: 1.1 g
KIDNEY_R [5]: 1.1 g
KIDNEY_TOTAL [5]: 2.2 g
LIVER [5]: 14.9 g
A/G [5]: 1.9
ALP [5]: 928.8 IU/L
ALT [5]: 42 IU/L
AST [5]: 70.2 IU/L
BUN [5]: 14.2 mg/dL
CRE [5]: 0.4 mg/dL
Ca [5]: 10.6 mg/dL
Cl [5]: 101.8 meq/L
DBIL [5]: 0.06 mg/dL
GLC [5]: 200.4 mg/dL
IP [5]: 5.9 mg/dL
K [5]: 3.9 meq/L
LDH [5]: 220.2 IU/L
Na [5]: 140.6 meq/L
PL [5]: 102.2 mg/dL
RALB [5]: 3.5 g/dL
TBIL [5]: 0.1 mg/dL
TC [5]: 43.6 mg/dL
TG [5]: 46.6 mg/dL
TP [5]: 5.3 g/dL
gamma-GTP [5]: 0.8 IU/L
TERMINAL_BW [6]: 267.7 g
TERMINAL_BW [7]: 303.4 g
TERMINAL_BW [8]: 368.7 g
APTT [6]: 21.4 s
Bas [6]: 0%
Eos [6]: 0.6%
Fbg [6]: 212.8 mg/dL
Hb [6]: 13.3 g/dL
Ht [6]: 38.9%
Lym [6]: 81.4%
MCH [6]: 20.9 pg
MCHC [6]: 34.3%
MCV [6]: 61.1 fL
Mono [6]: 3.2%
Neu [6]: 14.4%
PT [6]: 12.3 s
Plat [6]: 132.7 x10_4/uL
RBC [6]: 639.6 x10_4/ul
Ret [6]: 5.1%
WBC [6]: 129.1 x10_2/uL
APTT [7]: 21.9 s
Bas [7]: 0%
Eos [7]: 0.6%
Fbg [7]: 187.4 mg/dL
Hb [7]: 13.6 g/dL
Ht [7]: 39.6%
Lym [7]: 78.8%
MCH [7]: 19.9 pg
MCHC [7]: 34.4%
MCV [7]: 57.8 fL
Mono [7]: 3.4%
Neu [7]: 16.8%
PT [7]: 12.5 s
Plat [7]: 115.9 x10_4/uL
RBC [7]: 684.8 x10_4/ul
Ret [7]: 3.9%
WBC [7]: 125.1 x10_2/uL
APTT [8]: 22 s
Bas [8]: 0%
Eos [8]: 1%
Fbg [8]: 187.6 mg/dL
Hb [8]: 14.6 g/dL
Ht [8]: 41.5%
Lym [8]: 80.2%
MCH [8]: 19.1 pg
MCHC [8]: 35.1%
MCV [8]: 54.4 fL
Mono [8]: 3.4%
Neu [8]: 15.2%
PT [8]: 12.3 s
Plat [8]: 109.1 x10_4/uL
RBC [8]: 762.4 x10_4/ul
Ret [8]: 2%
WBC [8]: 121.5 x10_2/uL
KIDNEY_L [6]: 1.1 g
KIDNEY_R [6]: 1.2 g
KIDNEY_TOTAL [6]: 2.3 g
KIDNEY_L [7]: 1.3 g
KIDNEY_R [7]: 1.3 g
KIDNEY_TOTAL [7]: 2.6 g
KIDNEY_L [8]: 1.5 g
KIDNEY_R [8]: 1.6 g
KIDNEY_TOTAL [8]: 3.1 g
LIVER [6]: 18 g
LIVER [7]: 19.3 g
LIVER [8]: 21.8 g
A/G [6]: 2.1
ALP [6]: 1006.8 IU/L
ALT [6]: 31.4 IU/L
AST [6]: 62.8 IU/L
BUN [6]: 17.2 mg/dL
CRE [6]: 0.4 mg/dL
Ca [6]: 10.7 mg/dL
Cl [6]: 102 meq/L
DBIL [6]: 0.058 mg/dL
GLC [6]: 214.2 mg/dL
IP [6]: 7.4 mg/dL
K [6]: 3.5 meq/L
LDH [6]: 285 IU/L
Na [6]: 141.2 meq/L
PL [6]: 92.2 mg/dL
RALB [6]: 4 g/dL
TBIL [6]: 0.1 mg/dL
TC [6]: 37.6 mg/dL
TG [6]: 44.2 mg/dL
TP [6]: 5.9 g/dL
gamma-GTP [6]: 1 IU/L
A/G [7]: 2.2
ALP [7]: 750.6 IU/L
ALT [7]: 41.8 IU/L
AST [7]: 59.6 IU/L
BUN [7]: 17.6 mg/dL
CRE [7]: 0.4 mg/dL
Ca [7]: 10.5 mg/dL
Cl [7]: 101.4 meq/L
DBIL [7]: 0.062 mg/dL
GLC [7]: 228.2 mg/dL
IP [7]: 6.1 mg/dL
K [7]: 3.8 meq/L
LDH [7]: 172 IU/L
Na [7]: 140.4 meq/L
PL [7]: 113.2 mg/dL
RALB [7]: 4 g/dL
TBIL [7]: 0.1 mg/dL
TC [7]: 44 mg/dL
TG [7]: 46.4 mg/dL
TP [7]: 5.9 g/dL
gamma-GTP [7]: 0.8 IU/L
A/G [8]: 1.9
ALP [8]: 787 IU/L
ALT [8]: 43.4 IU/L
AST [8]: 70.8 IU/L
BUN [8]: 15.4 mg/dL
CRE [8]: 0.4 mg/dL
Ca [8]: 10.2 mg/dL
Cl [8]: 101.8 meq/L
DBIL [8]: 0.068 mg/dL
GLC [8]: 190 mg/dL
IP [8]: 5.1 mg/dL
K [8]: 3.6 meq/L
LDH [8]: 208.6 IU/L
Na [8]: 140.4 meq/L
PL [8]: 120.6 mg/dL
RALB [8]: 4 g/dL
TBIL [8]: 0.1 mg/dL
TC [8]: 46 mg/dL
TG [8]: 47.6 mg/dL
TP [8]: 6.1 g/dL
gamma-GTP [8]: 0.6 IU/L
